Measurements reported in patent US12421240B2, “Hydropyrazino[1,2-d][1,4]diazepine compounds for the treatment of autoimmune disease” (Hoffmann-La Roche Inc., priority 2019, dated 2025).

Biological target: T1, hERG channel (Homo sapiens, UniProt Q12809)
T1 construct: expressed in transfected cells
Experiment: hERG channel inhibition assay (patch-clamp, CHO hERG cells)
Format: cell-based
Settings: whole-cell patch-clamp; for IC20: human, CHO cells stably expressing hERG
Description: hERG Channel Inhibition Assay
The hERG K^+ channels were cloned in humans and stably expressed in a CHO (Chinese hamster ovary) cell line. CHOhERG cells were used for patch-clamp (voltage-clamp, whole-cell) experiments. Cells were stimulated by a voltage pattern to activate hERG channels and conduct IKhERG currents (rapid delayed outward rectifier potassium current of the hERG channel). After the cells were stabilized for a few minutes, the amplitude and kinetics of IKhERG were recorded at a stimulation frequency of 0.1 Hz (6 bpm). Thereafter, the test compound was added to the preparation at increasing concentrations. For each concentration, an attempt was made to reach a steady-state effect, usually, this was achieved within 3-10 min at which time the next highest concentration was applied. The amplitude and kinetics of IKhERG are recorded in each concentration of the drug which were compared to the control values (taken as 100%). (references: Redfern W S, Carlsson L, Davis A S, Lynch W G, MacKenzie I, Palethorpe S, Siegl P K, Strang I, Sullivan A T, Wallis R, Camm A J, Hammond T G. 2003; Relationships between preclinical cardiac electrophysiology, clinical QT interval prolongation and torsade de pointes for a broad range of drugs: evidence for a provisional safety margin in drug development. Cardiovasc. Res. 58:32-45, Sanguinetti M C, Tristani-Firouzi M. 2006; hERG potassium channels and cardiac arrhythmia. Nature 440:463-469, Webster R, Leishman D, Walker D. 2002; Towards a drug concentration effect relationship for QT prolongation and torsades de pointes. Curr. Opin. Drug Discov. Devel. 5:116-26).

T1 sequence (Q12809 whole entry): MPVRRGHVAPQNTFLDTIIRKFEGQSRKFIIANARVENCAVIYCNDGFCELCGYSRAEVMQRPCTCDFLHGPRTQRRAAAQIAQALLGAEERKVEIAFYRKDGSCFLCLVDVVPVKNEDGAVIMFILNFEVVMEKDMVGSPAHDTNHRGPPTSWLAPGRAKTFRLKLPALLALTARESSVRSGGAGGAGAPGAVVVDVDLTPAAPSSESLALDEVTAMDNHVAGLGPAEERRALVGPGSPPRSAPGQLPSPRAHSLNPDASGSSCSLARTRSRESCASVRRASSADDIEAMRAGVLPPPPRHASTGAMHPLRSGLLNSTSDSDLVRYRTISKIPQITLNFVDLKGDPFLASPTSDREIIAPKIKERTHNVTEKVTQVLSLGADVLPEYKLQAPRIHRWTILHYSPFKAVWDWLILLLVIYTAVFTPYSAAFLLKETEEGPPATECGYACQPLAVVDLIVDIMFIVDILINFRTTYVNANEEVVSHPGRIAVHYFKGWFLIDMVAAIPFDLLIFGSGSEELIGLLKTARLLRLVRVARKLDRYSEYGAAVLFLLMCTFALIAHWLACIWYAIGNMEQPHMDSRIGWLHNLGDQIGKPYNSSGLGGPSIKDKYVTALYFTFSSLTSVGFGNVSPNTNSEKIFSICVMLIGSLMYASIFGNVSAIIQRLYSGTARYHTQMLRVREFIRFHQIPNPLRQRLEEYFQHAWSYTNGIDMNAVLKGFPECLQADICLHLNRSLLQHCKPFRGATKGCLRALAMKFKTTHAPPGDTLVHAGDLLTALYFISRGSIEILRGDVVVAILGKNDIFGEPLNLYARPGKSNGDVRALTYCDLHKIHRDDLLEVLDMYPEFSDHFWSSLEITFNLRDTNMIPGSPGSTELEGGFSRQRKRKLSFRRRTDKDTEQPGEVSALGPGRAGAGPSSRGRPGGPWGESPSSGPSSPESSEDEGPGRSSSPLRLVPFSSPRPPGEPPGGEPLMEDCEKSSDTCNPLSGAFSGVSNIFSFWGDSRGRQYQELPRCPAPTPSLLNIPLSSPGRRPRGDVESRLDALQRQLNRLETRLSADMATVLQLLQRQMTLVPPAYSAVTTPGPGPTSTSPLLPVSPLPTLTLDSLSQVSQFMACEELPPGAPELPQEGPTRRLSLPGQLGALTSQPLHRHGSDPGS

| Structure (SMILES) | IC20 [µM] | IC50 [µM] |
| --- | --- | --- |
| C[C@@H]1CN(c2ccc(C#N)c3ncccc23)C[C@@H]2CCN(c3cc4c(cn3)CNCC4)CCN21 [Example 7, 5-[(4R,10aS)-4-methyl-8-(5,6,7,8-tetrahydro-2,7-naphthyridin-3-yl)-1,3,4,6,7,9,10,10a-octahydropyrazino[1,2-d][1,4]diazepin-2-yl]quinoline-8-carbonitrile] | > 10 | > 20 |
| C[C@@H]1CN(c2ccc(C#N)c3ncccc23)C[C@@H]2CCN(Cc3cnc4c(c3)CNCC4)CCN21 [Example 10, 5-[(4R,10aS)-4-methyl-8-(5,6,7,8-tetrahydro-1,6-naphthyridin-3-ylmethyl)-1,3,4,6,7,9,10,10a-octahydropyrazino[1,2-d][1,4]diazepin-2-yl]quinoline-8-carbonitrile] | > 10 | > 20 |
| C[C@@H]1CN(c2ccc(C#N)c3ncccc23)C[C@@H]2CCN(Cc3cnc(N4CCNCC4)cn3)CCN21 [Example 15, 5-[(4R,10aS)-4-methyl-8-[(5-piperazin-1-ylpyrazin-2-yl)methyl]-1,3,4,6,7,9,10,10a-octahydropyrazino[1,2-d][1,4]diazepin-2-yl]quinoline-8-carbonitrile] | > 10 | > 20 |
